Assay results as given in patent publication US7951778B2, “Use of compounds having the biological activity of vasoactive intestinal peptide for the treatment of sarcoidosis” (mondoBIOTECH AG, priority 2002, dated 2011).

Experiments:
Format in all cases: in vivo, human
[1] = tested on: patient with severe sarcoidosis stadium 3 and secondary pulmonary hypertension; test: Hemodynamic parameters by right heart catheterization before and after 12 weeks VIP inhalation; settings: VIP inhalation 200 μg per day
Experimental: (§1) A patient with severe sarcoidosis stadium 3 and secondary pulmonary hypertension was under therapy with cortocosteroids, furosemid, oxygen and an anticoagulant. Right heart catheterization (Swan-Ganz, Baxter, Irvine, Calif., USA) was performed to measure mean pulmonary artery pressure (mPAP), cardiac output (CO), mean arterial pressure (MAP), pulmonary capillary wedge pressure (PCWP) mixed venous oxygen saturation (SvO2%) and systemic arterial oxygen pressure (PaO2%) for and after treatment with VIP inhalation (200 μg in 12 ml 0.9% NaCl per day, 4×3 ml per inhalation) for 12 weeks. FEV1 (forced expiratory volume in one second), FVC (forced vital capacity), TLC (total lung capacity), AaDO2 (arterial-alveolar oxygen difference) of sarcoidosis patient is measured according to standard methods for and after treatment with VIP (200 μg in 12 ml 0.9% NaCl per day) for 12 weeks. VIP was inhaled for 12 weeks via the MicroDrop Master Jet (MPV, Truma, Germany) using a particle size of 3 μm to provide alveolar deposition of the substance.
(§2) Hemodynamic and lung function parameters of the sarcoidosis patient before and after the treatment with VIP for 12 weeks are summary in Table 2.

[2] = tested on: patient with severe sarcoidosis stadium 3 and secondary pulmonary hypertension; test: Lung function parameters before and after 12 weeks VIP inhalation; settings: after treatment, VIP inhalation 200 μg per day
Experimental: as §1, §2

[3] = tested on: patient with severe sarcoidosis stadium 3 and secondary pulmonary hypertension; test: 6-minutes walk test
Experimental: as §1
In the 6-minutes walk test, the patient improved from 210 meters before treatment to 350 meters after the treatment

For “His-Ser-Asp-Ala-Val-Phe-Thr-Asp-Asn-Tyr-Thr-Arg-Leu-Arg-Lys-Gln-Met-Ala-Val-Lys-Lys-Tyr-Leu-Asn-Ser-Ile-Leu-Asn [VIP]”, the CI ([1]; after treatment, before treatment 2.1) was 2.7, the “CO (cardiac output)” value ([1]; after treatment, before treatment 3.9) was 4.9 and the “PaO2 (systemic arterial oxygen pressure)” value ([1]; after treatment, before treatment 47.0) was 54.0. The “SvO2 (mixed venous oxygen saturation)” value ([1]; after treatment, before treatment 49.4) was 53.0, the PaCO2 ([1]; after treatment, before treatment 55.0) was 52.0 and the SaO2 ([1]; after treatment, before treatment 83.2) was 88.0. The “mAP (mean arterial pressure)” value ([1]; after treatment, before treatment 84.0) was 98.0, the “PCWP (pulmonary capillary wedge pressure)” value ([1]; first PCWP line of Table 2, after treatment, before treatment 10) was 10 and the PVR ([1]; first PVR line of Table 2, after treatment, before treatment 923) was 359. The “mPAP (mean pulmonary artery pressure)” value ([1]; first mPAP line of Table 2, after treatment, before treatment 55) was 32, the “PCWP (pulmonary capillary wedge pressure)” value ([1]; second PCWP line of Table 2, after treatment, before treatment 6.0) was 7.0 and the PVR ([1]; second PVR line of Table 2, after treatment, before treatment 985.0) was 313.0. The “mPAP (mean pulmonary artery pressure)” value ([1]; second mPAP line of Table 2, after treatment, before treatment 54.0) was 26.0, the FEV1 (forced expiratory volume in one second) ([2]; before treatment 1.2) was 1.1 L and the “FVC (forced vital capacity)” value ([2]; before treatment 1.4) was 1.3. The “TLC (total lung capacity)” value ([2]; before treatment 2.3) was 2.7, the “AaDO2 (arterial-alveolar oxygen difference)” value ([2]; before treatment 39.0) was 37.0 and the “6-minutes walk test distance” value ([3]; after the treatment with VIP for 12 weeks, 210 meters before treatment) was 350 meters. For the same substance, the 6-Min.WT ([3]; after treatment, VIP inhalation 200 μg per day, 12 weeks, before treatment 210) was 350.
